According to patent US8232278B2 (Gilead Sciences, Inc., priority 2005, dated 2012):
Like-named read-outs stand apart in the source and are kept apart here.

Legend:
Huh-7 HCV replicon cells = experiment: CC50 assay in Huh-7 HCV replicon cells (CellTiter-Glo); assay type: cell-based, human; conditions: 3 days, 50% cytostatic concentration
Procedure: (§1) The anti-HCV activity of the pyrido[3,2-d]pyrimidine derivatives of this invention was tested in a human hepatoma Huh-7 cell line harbouring a HCV replicon. The assay comprised the following steps:
(§2) Step 1: Compound Preparation and Serial Dilution
(§3) • 1. for water soluble pyrido[3,2-d]pyrimidine derivatives, a volume of 500 μL of solution in cell media (DMEM, 10% FBS, P/S, L-Glutamine) was prepared with a concentration being twice the concentration of the starting final serial dilution concentration. […] The rest of the plate, columns 2-12, was filled with 100 μL of cell media. The plate was then placed on a Precision 2000 Workstation to start the serial dilution. Compounds were diluted three times each step from column 1 to column 10. Column 11 was used as a blank control (no compound added). • 2. for pyrido[3,2-d]pyrimidine derivatives requiring DMSO to dissolve, serial dilution is performed in 50% DMSO in a 384-well plate. A solution containing a compound at 100-fold concentration of the starting final serial dilution concentration was prepared in 50% DMSO and added to the pre-specified wells in column 1 of a polypropylene 384-well plate. The plate was then placed on a Precision 2000 Workstation to start the serial dilution. After the serial dilution, a volume of 2 μL of the solution was transferred from the 384-well plate to a 96-well cell culture plate containing 100 μL of cell media on a Biomek FX Workstation. The DMSO concentration in the final assay condition was 0.5% after cells are added to the plate and the total volume in each well is brought to 200 μL. Step 2: to each well of the serial dilution plate prepared above, 100 μL of cell media containing 6000 suspended Huh-7 HCV replicon cells was added with a Multidrop workstation. The plates were incubated for 3 days at 37° C. with 5% CO2. Step 3: Detection: • a) for the EC50 assay, the media in a 96-well cell culture plate was aspirated with a Biotek EL405 plate-washer. A volume of 200 μL of a solution containing a 1:1 mixture of cell-lysis buffer (Promega, Luciferase Cell Culture Lysis 5× Reagent, cat. #E1531) and luciferase substrate solution (Promega, Luciferase Assay, cat. #E4550) was added to each well of the plate with Multidrop.
(§4) Results in table 7 are expressed by the following data: • the 50% effective concentration (EC50), i.e. the concentration that protects 50% of the cell monolayer from virus-induced cythopathic effect, and • the 50% cytostatic concentration (CC50), i.e. the concentration that results in 50% inhibition of cell growth. Table 7 further indicates the nature of substituents being present in positions 2, 4 and 6 of the pyrido[3,2-d]pyrimidine derivatives of the invention.

HCV replicon = experiment: Anti-HCV assay / replicon assay (EC50, luciferase read-out); assay type: cell-based, hepatitis C virus (HCV); conditions: for CC50/EC50: CC50/EC50 ratio (selectivity index); for EC50: human hepatoma Huh-7 cell line harbouring a HCV replicon, 3 days, luciferase luminescence, read-out: EC50
Procedure: as §1, §2, §3, §4

Molecule | CC50 (Huh-7 HCV replicon cells) [nM] | CC50/EC50 (HCV replicon) | EC50 (HCV replicon) [nM] | EC50 (HCV replicon; Hepatitis C virus, 72 h) [nM]
2-amino-4-(phenoxy-ethyl-piperazin-1-yl)-6-(3,4-dimethoxyphenyl)-pyrido[3,2-d]pyrimidine [Example 50] | 18000 | 310 | 58 | –
2-amino-4-[(N-3-chloro-phenyl-carbamoyl)-piperazin-1-yl]-6-(3-fluoro-4-ethoxyphenyl)pyrido-[3,2-d]pyrimidine [Example 171] | 1500 | 101 | 15 | –
2-amino-4-[(N-3-chloro-phenyl-carbamoyl)-piperazin-1-yl]-6-(3-methyl-4-methoxy-phenyl)pyrido-[3,2-d]pyrimidine [Example 168] | 2600 | 97 | 27 | –
2-amino-4-[N-3-chloro-phenyl-carbamoyl)-piperazin-1-yl]-6-(3,4-(methylenedioxy)phenyl)pyrido[3,2-d]pyrimidine [Example 173] | 3400 | 143 | 24 | –
4-[(N-4-chloro-phenylcarbamoyl)-piperazin-1-yl]-6-(3-methyl-4-methoxyphenyl)-pyrido[3,2-d]pyrimidine [Example 121] | 19400 | 162 | 120 | –
4-ethoxy-6-(3-fluoro-4-methoxy-phenyl)-pyrido[3,2-d]pyrimidin-2-ylamine [Example 459] | 25100 | 78 | 320 | –
4-ethoxy-6-(4-methoxy-phenyl)-pyrido[3,2-d]pyrimidin-2-ylamine [Example 461] | 25100 | 93 | 270 | –
COc1ccc(-c2ccc3nc(C)nc(N4CCN(C(=O)Nc5cccc(C)c5)CC4)c3n2)cc1OC [Example 11] | 7300 | 98 | 75 | –
COc1ccc(-c2ccc3nc(Cl)nc(N4CCN(C(=O)Nc5cccc(C)c5)CC4)c3n2)cc1OC [Example 14] | 25100 | 167 | 150 | –
COc1ccc(-c2ccc3nc(OCCOc4ccccc4)nc(N4CCN(C(=O)Nc5cccc(C)c5)CC4)c3n2)cc1OC [Example 19] | 25100 | 52 | 480 | –
COc1ccc(-c2ccc3nc(N)nc(Nc4cccc(C)c4)c3n2)cc1OC [Example 32, 2-amino-4-(3-methyl-anilino)-6-(3,4-dimethoxyphenyl)-pyrido[3,2-d]pyrimidine] | 50100 | 195 | – | 258
COc1ccc(-c2ccc3nc(N)nc(Nc4ccc5c(c4)OCO5)c3n2)cc1OC [Example 33, 2-amino-4-[3,4-(methylenedioxy)aniline]-6-(3,4-dimethoxyphenyl)pyrido[3,2-d]pyrimidine] | 4800 | 636 | 8 | –
COc1ccc(-c2ccc3nc(N)nc(NCCN4CCOCC4)c3n2)cc1OC [Example 38, 2-amino-4-[4-(2-aminoethyl)morpholino]-6-(3,4-dimethoxyphenyl)-pyrido[3,2-d]pyrimidine] | 7100 | 151 | 47 | –
COc1ccc(-c2ccc3nc(N)nc(N4CCN(c5ccccn5)CC4)c3n2)cc1OC [Example 52, 2-amino-4-(2-pyridyl-piperazin-1-yl)-6-(3,4-dimethoxyphenyl)-pyrido[3,2-d]pyrimidine] | 3000 | 72 | 42 | –
COc1ccc(-c2ccc3nc(N)nc(N4CCN(Cc5ccc6c(c5)OCO6)CC4)c3n2)cc1OC [Example 55, 2-amino-4-(1-piperonyl-piperazin-1-yl)-6-(3,4-dimethoxyphenyl)-pyrido[3,2-d]pyrimidine] | 25100 | 74 | 340 | –
COc1ccc(-c2ccc3nc(N)nc(N4CCN(Cc5ccccc5)CC4)c3n2)cc1OC [Example 57, 2-amino-4-(1-benzylpiperazin-1-yl)-6-(3,4-dimethoxyphenyl)-pyrido[3,2-d]pyrimidine] | 24600 | 546 | 45 | –
COc1ccc(-c2ccc3nc(N)nc(N4CCN(C(=O)Nc5cccc(Cl)c5)CC4)c3n2)cc1OC [Example 63, 2-amino-4(N-3-chloro-phenyl-carbamoyl-piperazin-1-yl)-6-(3,4-dimethoxyphenyl)-pyrido[3,2-d]pyrimidine] | 700 | 106 | 7 | –
COc1ccc(-c2ccc3nc(N)nc(N4CCN(C(=O)COc5ccccc5)CC4)c3n2)cc1OC [Example 65, 2-amino-4[(N-phenoxy-acetyl)-piperazin-1-yl]-6-(3,4-dimethoxyphenyl)-pyrido[3,2-d]pyrimidine] | 25100 | 90 | 280 | –
Cc1ccc(-c2ccc3ncnc(N4CCN(C(=O)Nc5cccc(Cl)c5)CC4)c3n2)cc1C [Example 84] | 21800 | 167 | 130 | –
O=C(Nc1cccc(Cl)c1)N1CCN(c2ncnc3ccc(-c4ccc5c(c4)OCO5)nc23)CC1 [Example 85, 4-[(N-3-chlorophenylcarbamoyl)-piperazin-1-yl]-6-(3,4-methylenedioxy)phenyl-pyrido[3,2-d]pyrimidine] | 1200 | 64 | 19 | –
CCOc1ccc(-c2ccc3ncnc(N4CCN(C(=O)Nc5cccc(Cl)c5)CC4)c3n2)cc1Cl [Example 86] | 25100 | 100 | 250 | –
COc1ccc(-c2ccc3nc(Nc4ccc(C)cc4)nc(N4CCN(C(=O)Nc5cccc(C)c5)CC4)c3n2)cc1OC [Example 94, 2-(p-tolylamino)-4-[(N-3-methylphenylcarbamoyl)-piperazin-1-yl]-6-(3,4-dimethoxy-phenyl)-pyrido[3,2-d]pyrimidine] | 25100 | 339 | 74 | –
COc1cc(-c2ccc3nc(N)nc(N4CCN(C(=O)Nc5ccc(F)cc5)CC4)c3n2)ccc1OC(C)C [Example 106, 2-amino-4-[(N-4-fluoro-phenyl-carbamoyl)-piperazin-1-yl]-6-(4-isopropoxy-3-methoxy-phenyl)-pyrido[3,2-d]pyrimidine] | 3600 | 102 | 35 | –
COc1cc(-c2ccc3ncnc(N4CCN(C(=O)Nc5cccc(Cl)c5)CC4)c3n2)ccc1OC(C)C [Example 124] | 2500 | 71 | 35 | –
Nc1nc(N2CCOCC2)c2nc(-c3ccc4c(c3)OCO4)ccc2n1 [Example 180, 2-amino-4-morpholino-6-(3,4-(methylenedioxy)phenyl)pyrido[3,2-d]pyrimidine] | 25100 | 167 | 150 | –
Nc1nc(N2CCN(C(=O)COc3ccc(Cl)cc3)CC2)c2nc(-c3ccc(Cl)c(Cl)c3)ccc2n1 [Example 188, 2-amino-4-[N-(4-chlorophenoxy-acetyl)-piperazin-1-yl]-6-(3,4-dichlorophenyl)-pyrido[3,2-d]pyrimidine] | 12300 | 211 | 58 | –
Nc1nc(N2CCN(C(=O)COc3ccc(Cl)cc3)CC2)c2nc(-c3ccc4c(c3)OCCO4)ccc2n1 [Example 189, 2-amino-4-[N-(4-chlorophenoxy-acetyl)-piperazin-1-yl]-6-(1,4-benzodioxane)-pyrido[3,2-d]pyrimidine] | 430 | 50 | 9 | –
Cc1cccc(NC(=O)N2CCN(c3nc(N)nc4ccc(-c5ccc(Cl)c(Cl)c5)nc34)CC2)c1 [Example 191, 2-amino-4-[N-(3-methyl-phenyl-carbamoyl)-piperazin-1-yl]-6-(3,4-dichlorophenyl)-pyrido[3,2-d]pyrimidine] | 1200 | 132 | 9 | –
Cc1cccc(NC(=O)N2CCN(c3nc(N)nc4ccc(-c5ccc6c(c5)OCCO6)nc34)CC2)c1 [Example 192, 2-amino-4-[N-(3-methyl-phenyl-carbamoyl)-piperazin-1-yl]-6-(1,4-benzodioxane)-pyrido[3,2-d]pyrimidine] | 690 | 147 | 5 | –
